Here are results for 1 sequence from patent US20250197461A1, “Insect-derived short peptide for improving abscisic acid (ABA) content in cruciferous plant” (Gannan Normal University, priority 2023, published 2025).

One assay relates to Arabidopsis thaliana. The assay is described as follows: Phytohormone detection in Arabidopsis thaliana leaves treated with short peptide (LC-MS/MS). It is filed as in vivo. Particulars: 0.01 mg/mL; for ABA content / JA content: compared with GFP control group. The method, then:
A synthetic short peptide of GSS1-PI with the corresponding concentration and mass was weighed and dissolved in 0.1% DMSO to obtain a 0.01 mg/mL treatment solution. A wild-type Arabidopsis thaliana plant of about four weeks old was taken, two cotyledons were collected and mechanically damaged to obtain three small holes, 2 μL of the GSS1-PI treatment solution was added dropwise into each small hole, while the control group was a solution of the same concentration prepared by synthesizing an unrelated short peptide GFP group (GFP-28aa: […], SEQ ID NO: 20) of the same length. After 24 h and 48 h of treatment, approximately 0.2 g of Arabidopsis thaliana leaves were collected, and each treatment had three biological replicates. The leaves were quickly placed in liquid nitrogen and stored in a −80° C. ultra-low temperature refrigerator for subsequent phytohormone group detection.
• a. The cryopreserved biological samples were ground with a grinder (30 Hz, 1 min) until they were in a powder form. • b. 50 mg of the ground sample was weighed and added with 10 μL of an internal standard mixed solution with a concentration of 100 ng/ml and 1 mL of an extractant including methanol/water/formic acid (15:4:1, v/v/v), and mixed well. • c. After vortexing for 10 min, a resulting mixture was centrifuged at 4° C. and 12,000 r/min for 5 min, and a resulting supernatant was transferred to a new centrifuge tube for concentration. • d. After concentration, the concentrated solution was reconstituted with 100 μL of 80% methanol/water solution, the reconstituted solution was filtered through a 0.22 μm filter, and the filtrate was placed in a sampling bottle for LC-MS/MS analysis.
The data acquisition instrument system mainly included ultra-performance liquid chromatography (UPLC) (ExionLC™ AD, //sciex.com.cn/) and tandem mass spectrometry (MS/MS) (QTRAP® 6500+, //sciex.com.cn/).
Liquid phase conditions mainly included: • 1) Chromatographic column: Waters ACQUITY UPLC HSS T3 C18 column (1.8 μm, 100 mm×2.1 mm i.d.); • 2) Mobile phase: phase A, ultrapure water (added with 0.04% acetic acid); phase B, acetonitrile (added with 0.04% acetic acid); • 3) Gradient elution program: 0 min A/B at 95:5 (V/V), 1.0 min A/B at 95:5 (V/V), 8.0 min at 5:95 (V/V), 9.0 min at 5:95 (V/V), 9.1 min at 95:5 (V/V), 12.0 min at 95:5 (V/V); • 4) Flow rate: 0.35 mL/min; column temperature: 40° C.; injection volume: 2 μL.
Electrospray ionization (ESI) ion source temperature was 550° C., the mass spectrometer voltage in the positive ion mode was 5,500 V, the mass spectrometer voltage in the negative ion mode was-4,500 V, and the curtain gas (CUR) was 35 psi. In the Q-Trap 6500+, each ion transition was scanned based on optimized declustering potential (DP) and collision energy (CE).
The quantificative analysis was accomplished using the multiple reaction monitoring mode (MRM, as shown below) of triple quadrupole mass spectrometry. […] And the non-target ion interference was eliminated, so that the quantification was more accurate and reproducible. After obtaining the mass spectrometry data of different samples, the chromatographic peaks of all target substances were integrated and quantitatively analyzed through the standard curve.

For assay [1], the system named is Plutella xylostella larvae. The assay is described as follows: Plutella xylostella larvae fed on Arabidopsis thaliana treated with short peptide. It is filed as in vivo. Particulars: third-instar larvae fed on treated Arabidopsis thaliana for 3 days. The text has this: (5) Biological Experimental Observation after GSS-PI Short Peptide Treatment with Arabidopsis thaliana. • 1) 60 newly molted third-instar larvae fed on artificial feed were divided into 3 groups, and 20 larvae in each group were fed on Arabidopsis thaliana plants treated with GSS-P1 short peptide or GFP control short peptide; • 2) In order to prevent plants from being damaged mechanically or influenced by external factors, a simple interactive biological observation device for insect-plant interaction was used to eliminate potential interference factors; • 3) After 3 days, the simple interactive biological observation device was opened, and the number of larvae (4th instar larvae) was observed and counted, the number of larvae surviving was recorded, and divided by the initial number of 20 larvae to obtain the daily survival rate of larvae.

Take “PDYKQKLRDSKAWESLETIGIPLDADVM (insect-derived short peptide) [GSS1-PI]”: the ABA content result was “increased significantly” with Arabidopsis thaliana (24 h treatment) and “upward trend but no significant difference” with Arabidopsis thaliana (48 h treatment). For the same sequence, the JA content result is on record as “increased significantly” with Arabidopsis thaliana (24 h treatment) and “downward trend” in the assay with Arabidopsis thaliana (48 h treatment). Moreover, the SA content result with Arabidopsis thaliana (before and after treatment) is “no significant change”. Moreover, the “mortality rate of larvae” value in assay [1] was “about 70%”.
